The record followed here is patent publication US20100159030A1, “METHODS FOR DETECTING AND MODULATING THE SENSITIVITY OF TUMOR CELLS TO ANTI-MITOTIC AGENTS AND FOR MODULATING TURMORGENICITY” (NewSouth Innovations Pty Limited, priority 2007, published 2010).

Test [1] deals with NSCLC H460 cells. As to the kind of experiment: Drug-treated clonogenic assay (surviving fraction, ID50) on siRNA/shRNA-transfected cells. It counts as cell-based, Human. As to conditions: for IC50: Homo sapiens, read-out: ID50 (the source's name); for change in drug sensitivity (clonogenic survival): H460. The procedure: (§1) Cells were transfected for 24 h and approximately 600 cells (for Calu-6) or 150 cells (for H460) were seeded into each well of a 6-well plate and allowed to attach for 4-6 h. The cell lines used in this study were not subject to prior drug selection, and are likely to represent intrinsic drug resistance observed in lung carcinoma.
(§2) Cells were then treated with increasing concentrations of various anti-mitotic drugs. Following a 3-day incubation at 37° C., the drug-containing medium was removed and replaced with fresh complete medium. Medium was changed at 3-4 day intervals for 7 to 10 days until visible colonies formed. […] Surviving colonies were simultaneously fixed and stained with 0.5% crystal violet in methanol, rinsed with water to remove excess stain and air-dried overnight.
(§3) The colonies in each well were manually counted, and the results were presented as surviving fraction according to the formula: surviving fraction was calculated as follows: colony number/(number of cells seeded×plating efficiency), where plating efficiency is equivalent to the colony number divided by the number of cells seeded in the drug-free medium. Dose-response curves were plotted for each drug-cell line combination and inhibitory dose (ID50) values were extrapolated from this curve using GraphPad Prism program (GraphPad Software, version 4, San Diego, Calif.). ID50 was defined as the concentration of the drug required to reduce the number of colonies in drug-treated wells to 50% of that of the relevant untreated control wells. The ID50 values were the means of at least four independent experiments.
(§4) To quantitate any change in drug sensitivity, drug treated clonogenic assays were performed. Twenty-four hours after siRNA transfection, cells were harvested and plated into 6-well plates for 6 h, prior to the addition of various drugs as indicated in the figure legends. After 72 h incubation, the drug-containing media was removed and replaced with complete growth media. Medium was changed every 3 days for 7 to 10 days until visible colonies formed. Colonies were simultaneously fixed and stained with 0.5% crystal violet in methanol, and manually counted. Individual stained colonies in each well were counted and the surviving fraction was calculated as follows: colony number/(number of cells seeded×plating efficiency), where plating efficiency equals the colony number divided by the number of cells seeded in drug-free media.

Test [2] has as its system Calu-6 cells. Description: Drug-treated clonogenic assay on siRNA-transfected cells. It counts as cell-based, Human. As to conditions: βIII-tubulin siRNA silencing vs controls. How it is done:
as §1, §2, §3, §4

Test [3] has as its system CCRF-CEM Leukaemia cells. It counts as cell-based. As to conditions: for cross-resistance of the 2ME2-resistant cells: 2ME2-resistant sublines. From the text:
The tubulin-binding agent 2-methoxyestradiol (2ME2) binds to β-tubulin near the colchicine-binding site, inhibits microtubule polymerization, and induces mitotic arrest. CCRF-CEM Leukaemia cells that display increasing resistance to 2ME2 were selected, and four of the highly 2ME2 resistant leukaemia sublines were chosen for detailed analysis.

[4] abbreviates: NCI-H460, Table 1A, control siRNA-transfected H460 cells.
The mark [5] stands for this setting: NCI-H460, Table 1A, mock-transfected H460 cells.
[6] abbreviates: NCI-H460, Table 1A, βII siRNA-transfected H460 cells.
Setting [7] is: NCI-H460, Table 1B, control siRNA-transfected H460 cells.
[8] abbreviates: NCI-H460, Table 1B, mock-transfected H460 cells.
Where [9] appears, read: NCI-H460, Table 1B, βIVb siRNA-transfected H460 cells.
Where [10] appears, read: βIII-tubulin siRNA silencing vs controls.
Where [11] appears, read: class II β-tubulin siRNA knockdown vs controls.

The structures appear in SMILES notation. Counter-ions that a name gives are not always drawn. Like-named read-outs stand apart in the source and are kept apart here.

Consider `CCC1=C[C@@H]2CN(C1)Cc1c([nH]c3ccccc13)[C@@](C(=O)OC)(c1cc3c(cc1OC)N(C)[C@H]1[C@@](O)(C(=O)OC)[C@H](OC(C)=O)[C@]4(CC)C=CCN5CC[C@]31[C@@H]54)C2` [Vinorelbine, vinorelbine], for which the IC50 in test [1] (setting [4]) was 5.78 nM; in test [1] (setting [5]), 6.34 nM; in test [1] (setting [6]), 4.04 nM; in test [1] (setting [7]) it was 6.52 nM; in test [1] (setting [8]), 6.95 nM; in test [1] (setting [9]), 5.43 nM. Besides, the “change in drug sensitivity (clonogenic survival)” value (shortened to “change in drug sensitivity”) in test [1] (setting [10]) and in test [2] was “enhanced sensitivity” in each case.
In the case of `COc1cc2c(c(OC)c1OC)-c1ccc(OC)c(=O)cc1[C@@H](NC(C)=O)CC2` [colchicine], in test [1] (setting [11]), the “change in drug sensitivity” value was “significantly increased sensitivity”. Moreover, the “cross-resistance of the 2ME2-resistant cells” value in test [3] was “not cross resistant”. Moreover, in test [3] (lowest resistant subline CEM/2ME2-3.6R only), the cross-resistance result is “cross-resistance”.
Consider `COc1cc([C@@H]2c3cc4c(cc3[C@@H](O[C@@H]3O[C@@H]5CO[C@@H](C)O[C@H]5[C@H](O)[C@H]3O)[C@H]3COC(=O)[C@H]23)OCO4)cc(OC)c1O` [VP-16, Etoposide], for which the “change in drug sensitivity” value in test [1] (setting [10]) is given as “increased sensitivity”.
Regarding `COc1cccc2c1C(=O)c1c(O)c3c(c(O)c1C2=O)C[C@@](O)(C(=O)CO)C[C@@H]3O[C@H]1C[C@H](N)[C@H](O)[C@H](C)O1` [doxorubicin, doxorubicin hydrochloride], the “change in drug sensitivity” value in test [1] (setting [10]) is given as “increased sensitivity”.
Turning to `COc1cc2c(cc1O)CC[C@@H]1[C@@H]2CC[C@]2(C)[C@@H](O)CC[C@@H]12` [2ME2, 2-methoxyestradiol], the “change in drug sensitivity” value in test [1] (setting [11]) is “significantly increased sensitivity”.
With `CC[C@]12C=CCN3CC[C@@]4(c5cc([C@@]6(C(=O)OC)C[C@@H]7C[C@@H](C(C)(F)F)CN(Cc8c6[nH]c6ccccc86)C7)c(OC)cc5N(C)[C@H]4[C@@](O)(C(=O)OC)[C@@H]1OC(C)=O)[C@@H]32` [Vinflunine, vinflunine], the IC50 turned out to be 29.9 nM in test [1] (setting [4]); 31 nM in test [1] (setting [5]); 19 nM in test [1] (setting [6]); 30.5 nM in test [1] (setting [7]); 31.7 nM in test [1] (setting [8]); 19.2 nM in test [1] (setting [9]).
As for `CC[C@]1(O)C[C@@H]2CN(CCc3c([nH]c4ccccc34)[C@@](C(=O)OC)(c3cc4c(cc3OC)N(C)[C@H]3[C@@](O)(C(=O)OC)[C@H](OC(C)=O)[C@]5(CC)C=CCN6CC[C@]43[C@@H]65)C2)C1` [Vinblastine, vinblastine], the IC50 in test [1] (setting [4]) turned out to be 0.749 nM; in test [1] (setting [5]) it was 0.658 nM; in test [1] (setting [6]) it was 0.437 nM; in test [1] (setting [7]), 0.615 nM; in test [1] (setting [8]) it was 0.674 nM; in test [1] (setting [9]), 0.173 nM.
In the case of `C/C(=C\c1csc(C)n1)[C@@H]1C[C@@H]2O[C@]2(C)CCC[C@H](C)[C@H](O)[C@@H](C)C(=O)C(C)(C)[C@@H](O)CC(=O)O1` [epothilone B], the “change in drug sensitivity” value is “no significant change in drug sensitivity” in test [1] (setting [11]), “significantly more resistant” in test [1] (class IVb β-tubulin siRNA knockdown vs controls), “increased the sensitivity” in test [1] (setting [10]) and “increased the sensitivity” in test [2]. The “cross-resistance of the 2ME2-resistant cells” value in test [3] was “hypersensitive”.
